{"source": "patent US8039456B2", "about": "“Method of stimulating the motility of the gastrointestinal system using ipamorelin” (Helsinn Therapeutics (U.S.), Inc., priority 2004, dated 2011)", "key": {"[1]": {"tested_on": "morphine-induced gastric ileus in rats", "assay": "Morphine-induced gastric ileus in rats, phenol red gastric emptying (Example 4)", "format": "in vivo, rat", "experimental": "Treatment groups were set up as follows.\nThe dose volume was 0.1 mL/kg for Groups 2 and 3 and 0.4 mL/kg for Groups 4 and 5. The actual dose administered was based on the most recent practical body weight of each animal.\nApproximately 30 minutes following administration of control or test article, the rats were euthanized. The stomach was then exposed by laparotomy, quickly ligated at the pylorus and the cardia and removed. The stomach was cut open and its contents extracted with 100 mL of 0.1N NaOH. The phenol red content of this extract was assayed […] at 558 nm in a spectrophotometer. Following collection, samples were stored on wet ice pending transfer for analysis."}, "[2]": {"tested_on": "gastrointestinal motility in rats", "assay": "Gastrointestinal motility in rats by charcoal transit, 0.25 mg/kg i.v. (Example 8)", "format": "in vivo, rat", "conditions": "for reduction of the amount of charcoal remaining in the stomach relative to the control group: 0.25 mg/kg i.v.", "experimental": "The objective of this study was to evaluate the pharmacological effects of a series of ghrelin mimetics on gastrointestinal motility in rats, as measured by charcoal transit, relative to a commonly used prokinetic agent, metoclopramide, and control, following a single intravenous infusion of the experimental agent. Each dosing formulation was prepared on the day of dosing. […] The reference article formulations were also prepared on the day of dosing by mixing the appropriate amount of reference article with the appropriate volume of vehicle to achieve the desired final concentration. The saline and metoclopramide (1 mg/mL) were used as supplied. Dosing was performed on consecutive days with approximately equal numbers of animals being dosed on each day. The animals were deprived of food overnight prior to treatment. Each formulation was administered by intravenous injection into the tail vein using a syringe and appropriate gauge needle. The dose volume was 5 mL/kg or 10 mL/kg (in the case of metoclopramide only). […] Following the observation period the rats were euthanized, the abdominal cavity opened, and the stomach and intestines removed. The presence or absence of charcoal was documented. The stomachs were weighed (with or without contents) to give an indication of gastric emptying. The intestines were opened and extended to their full length. The charcoal was located and the distances from the pyloric sphincter to the most proximal and distal traces of charcoal were measured as was the total distance from the pyloric sphincter to the cecum. Also, the distance traveled by the charcoal as a percentage of the total length of the small intestine was measured."}, "[3]": {"tested_on": "gastrointestinal motility in rats", "assay": "Gastrointestinal motility in rats by charcoal transit, equimolar i.v. dose (Example 9)", "format": "in vivo, rat", "conditions": "single intravenous dose of 75 μmoles/kg", "from_the_text": "The objective of this study was to evaluate the pharmacological effects of a series of ghrelin mimetics on gastrointestinal motility in rats, as measured by charcoal transit, relative to control, following a single intravenous infusion of the experimental agent.\nDosing commenced on consecutive days with approximately equal numbers of animals from each group being dosed on each day. The animals were food deprived overnight prior to treatment. Prior to dosing, the animals were water deprived. The test/reference/positive control articles were administered by intravenous injection into the tail vein using a syringe and appropriate gauge needle. […]\nAt the end of the observation period, the rats were euthanized and the abdominal cavity was opened and the stomach and intestines were removed. […] The stomachs were weighed (with and without contents) and this was recorded to give an indication of gastric emptying. […] The charcoal was located and the distances from the pyloric sphincter to the most proximal and distal traces of charcoal were measured and recorded, as well as the total distance from the pyloric sphincter to the cecum (all distances were measured in mm). In addition to the stomachs weights (with and without contents) the distance traveled by the charcoal as a percentage of the total length of the small intestine was recorded to give an indication of the gastric emptying. […]"}, "[4]": {"conditions": "cited from earlier work"}, "[5]": {"conditions": "cited from earlier work", "remark": "listed apart in the source"}, "[6]": {"tested_on": "rat model of post-operative ileus", "assay": "Gastric emptying (phenol red) after i.v. injection, ipamorelin compared to RC-1139, rat model of post-operative ileus (Example 5)", "format": "in vivo", "conditions": "10 mg/kg i.v.; for lethality: n = 2", "experimental": "Ipamorelin was evaluated in a rat model of post-operative ileus in comparison to RC-1139, a ghrelin mimetic with known gastrokinetic efficacy. Treatment groups were as follows.\nAll animals were examined twice daily for mortality and signs of ill health or reaction to treatment (except on the day of arrival and necropsy when the animals were examined once). Individual body weights were measured at randomization and on the day prior to dosing (for dose calculation purposes only).\nAll treatment procedures were replicated over two consecutive days with approximately equal numbers of animals from each group treated on each day. Food was withdrawn from animals overnight prior to surgery. On the day of surgery animals were anesthetized with isoflurane gas and a bland ophthalmic lubricant was applied to each eye. The animals were prepared for surgery by shaving of the entire abdominal region. The shaved area was cleaned and disinfected appropriately prior to incision. Using a scalpel blade, the abdomen was opened and the cecum localized. The cecum was exteriorized and manipulated for approximately one minute (i.e. gently patted between hands in saline-soaked gauze). Thereafter, the cecum was repositioned and the surgical site closed using absorbable suture material (interrupted sutures) and staples. Animals were then returned to their home cage to permit recovery from the anesthesia.\nAnimals were dosed immediately following the oral gavage dose of phenol red. The test/control articles and reference article were administered by intravenous injection (given as a slow bolus injection over a period of ca. 100 seconds) into the tail vein using a syringe and appropriate gauge needle. The dose volume was 5 mL/kg and the actual dose administered was based on the most recent body weight of each animal.\nPrior to dosing of the phenol red, the animals were water deprived. At approximately 30 minutes post-surgery, animals received 0.4 mL of phenol red by oral gavage, then dosed with the test article, and then, approximately 30 minutes later, were euthanized. […]"}, "Half-life in humans": {"assay": "Half-life in humans", "format": "in vivo"}, "[7]": {"assay": "Prior Phase 1 studies, safety and tolerability", "format": "in vivo, humans", "conditions": "0.06 mg/kg IV infused over 15 minutes", "experimental": "Ipamorelin was formulated as a 0.5 mg/mL sterile solution with 2 equivalents of acetic acid in normal saline. The sterile solution was further diluted with normal saline to an appropriate volume for administration prior to use."}, "[8]": {"conditions": "Johansen et al. 1998; cited from earlier work"}, "rat model of POI": {"tested_on": "rat model of POI", "assay": "Rat model of POI (running of the bowel), single dose (Example 10, series 1)", "format": "in vivo", "from_the_text": "Animals: Adult male Sprague-Dawley rats with indwelling catheters implanted in the right jugular vein were obtained from Charles River (Wilmington, Mass.). The initial body weight of the animals was 250-270 g. The catheters were maintained patent during the acclimation and were used for the dosing of ipamorelin or vehicle. An additional group of control rats, not subjected to surgery and drug or vehicle treatment, were purchased with an indwelling catheter implanted into the proximal colon (1-2 cm from the cecum) used for infusion of a dye marker measuring colonic transit. All rats were single-housed under controlled conditions (25° C., 12 h light/dark cycle) with free access to food and water. An acclimation period of at least one week was allowed prior to the experiments. • Induction of post-operative ileus (POI): POI was induced by a surgical procedure described as “running of the bowel” (Kalff et al., 1998). Specifically, rats were anesthetized with isoflurane (2-3%) inhalation, the abdomen was shaved, disinfected and a midline incision was made to expose the viscera. The small intestine and the cecum were exteriorized and inspected for 5 min using cotton applicators soaked in sterile saline. After completing the inspection, the intestine was covered with gauze soaked in saline and the abdomen remained open for additional 10 min. To study colonic transit, 200 μl of a non-absorbable dye marker (trypan blue in saline) was injected into the proximal colon (1 cm distal to the cecum). The incision was then closed with silk sutures. The whole procedure lasted 25-30 min. Surgeries were always performed at 6:00-8:00 AM and the animals received ipamorelin or vehicle treatment during the light phase of the light/dark cycle. • Measurement of colonic transit time: Prior to the experiments, the rats were fasted for 20-22 h with free access to water. […] Colonic transit time was evaluated as the period between the end of surgery and the appearance of dye in the fecal pellet. […] The cumulative fecal output was evaluated by adding the number of pellets throughout a 48-h post-surgical period. Food intake was recorded at 3-h interval or 12-h intervals according to the experimental design and was normalized as g/100 g body weight. The cumulative food intake was calculated for 48 h post-surgery in both series of experiments. Body weight was measured daily at 8:00-9:00 AM before fasting the animals, on the day of experiment before the surgery and at 24 h and 48 h post-surgery. Changes in body weight are expressed as body weight gain compared to the weight of the fasted animal taken before the surgery. • Test and control articles: The test compound ipamorelin (free base) was converted to the diacetate salt by mixing with 2 molar equivalents of glacial acetic acid. […]"}, "[9]": {"conditions": "50 μg/kg i.v. after 1 mg/kg morphine"}, "[10]": {"conditions": "single dose i.v., first 48 h post-surgery"}}, "note": "Where two headings read alike, the source gives them in different places. Square brackets hold non-standard residues; d marks the D form. Ends that are not written are not given here. Peptide text beside a SMILES is read from it. d2Nal = N[C@H](Cc1ccc2ccccc2c1)C(=O)O; Aib = CC(C)(N)C(=O)O", "data": [{"compound": "ghrelin: 28-amino acid peptide that is produced in the stomach; potent prokinetic peptide known to reverse gastric ileus (GSSFLSPEHQRVQQRKESKKPPAKLQPR; ends and bridges not checked; UniProt Q9UBU3 24-51, looked up)", "values": [{"measurement": "acceleration of stomach emptying compared to animals treated with 1 mg/kg morphine and saline", "setting": "[1]; [9]", "value": "approximately 37%"}, {"measurement": "reversal of the ileus induced", "setting": "[1]; [9]", "value": "approximately 11%"}, {"measurement": "gastric emptying in rats administered 4 mg/kg of morphine", "setting": "[1]; 50 μg/kg i.v. after 4 mg/kg morphine", "value": "did not accelerate gastric emptying"}, {"measurement": "group mean absorbance of phenol red", "setting": "[1]; 50 μg/kg i.v. after 4 mg/kg morphine, saline group 2.99", "value": 3.01}, {"measurement": "reduction of the amount of charcoal remaining in the stomach relative to the control group", "setting": "[2]", "value": 57, "unit": "%"}, {"measurement": "intestinal transit, proximal distance traveled by the charcoal from the pyloric sphincter", "setting": "[3]", "value": "resulted in gastric emptying by one of the two measures"}, {"measurement": "half-life in humans", "setting": "[4]", "value": "approximately 10 minutes"}, {"measurement": "serum half-life", "setting": "[5]; biologically active (acylated) form, Akamizu et al. 2004", "value": "9 to 13", "unit": "min"}]}, {"compound": "CN1CC[C@]23c4c5ccc(O)c4O[C@H]2[C@@H](O)C=C[C@H]3[C@H]1C5", "note": "[morphine]", "values": [{"measurement": "reduction of stomach emptying compared to the control animals", "setting": "[1]; 1 or 4 mg/kg subcutaneous", "value": "approximately 42%"}]}, {"compound": "CN(C(=O)/C=C/CC(C)(C)N)[C@H](Cc1ccc(-c2ccccc2)cc1)C(=O)N(C)[C@H](Cc1ccccc1)C(=O)N1CCC(O)CC1", "note": "[RC-1139]", "values": [{"measurement": "stomach content of the phenol red marker lower than that of the control group", "setting": "[6]", "value": "approximately 16%"}]}, {"compound": "CCN(CC)CCNC(=O)c1cc(Cl)c(N)cc1OC", "note": "[metoclopramide]", "values": [{"measurement": "increase of distal distance traveled by the charcoal meal versus control", "setting": "[2]; 10 mg/kg i.v.", "value": 29, "unit": "%"}, {"measurement": "stomach charcoal content versus control group", "setting": "[2]; 10 mg/kg i.v.", "value": "not significantly different"}, {"measurement": "distal distance traveled by the charcoal meal", "setting": "[2]; 10 mg/kg i.v., control group 67.3%", "value": 86.9, "unit": "%"}]}, {"compound": "CC(C)(N)C(=O)N[C@@H](Cc1c[nH]cn1)C(=O)N[C@H](Cc1ccc2ccccc2c1)C(=O)N[C@H](Cc1ccccc1)C(=O)N[C@@H](CCCCN)C(N)=O", "note": "[ipamorelin, α-Methylalanine-L-histidine-D-β-(2-naphthyl)-alanine-D-phenylalanine-L-lysinamide] (H-[Aib]H[d2Nal][dF]K-NH2)", "values": [{"measurement": "half-life in humans", "setting": "Half-life in humans", "value": "approximately six"}, {"measurement": "half-life", "setting": "Half-life in humans; human, serum", "value": "180 to 390", "unit": "min"}, {"measurement": "lethality", "setting": "[6]", "value": "Two animals died immediately"}, {"measurement": "lethality", "setting": "[6]; listed as Ipamorelin", "value": "*Lethality was observed immediately following administration of a 10 mg/kg dose (n = 2) and consequently the dose level was reduced to 0.25 mg/kg for all remaining animals in Group 4"}, {"measurement": "safety and tolerability in prior Phase 1 studies", "setting": "[7]", "value": "safe and well-tolerated"}, {"measurement": "half-life in the rat", "setting": "[8]", "value": "30 to 60", "unit": "min"}]}, {"compound": "GHRP-6", "values": [{"measurement": "reduction of the amount of charcoal remaining in the stomach relative to the control group", "setting": "[2]", "value": 64, "unit": "%"}, {"measurement": "intestinal transit, proximal distance traveled by the charcoal from the pyloric sphincter", "setting": "[3]", "value": "resulted in gastric emptying by one of the two measures"}, {"measurement": "body weight gain", "setting": "rat model of POI; [10]", "value": "neither ipamorelin nor GHRP-6 had a significant effect"}, {"measurement": "fecal pellet output", "setting": "rat model of POI; [10]", "value": "neither ipamorelin nor GHRP-6 had a significant effect"}, {"measurement": "food intake", "setting": "rat model of POI; [10]", "value": "neither ipamorelin nor GHRP-6 had a significant effect"}, {"measurement": "colonic transit time", "setting": "rat model of POI; single post-surgical dose of 20 μg i.v.", "value": "significantly decreased"}, {"measurement": "serum half life", "setting": "[5]; Bowers et al. 1992", "value": 20, "unit": "min"}]}]}
